Key:
[1] = Protective index, ratio of ID50 for locomotory activity to ED50 for antinociceptive activity in orally dosed ddY mouse; type: toxicity, organism-based; settings: in vivo, po
[2] = Effect on spontaneous locomotory activity in orally dosed ddY mouse measured for 1 hr; type: ADME, organism-based; settings: in vivo, po
[3] = system: Mus musculus; test: Antinociceptive activity in orally dosed ddY mouse model assessed as inhibition of acetic acid-induced writhes pretreated for 30 mins followed by acetic acid challenge and measured for 25 mins post acetic acid challenge; type: functional; settings: po, 55 min
[4] = biological target: T1, hERG (KCNH2) (Homo sapiens, UniProt Q12809); test: Inhibition of human ERG expressed in HEK293 cells at 30 uM at - 80 mV holding potential by whole cell patch clamp assay relative to control; type: cell-based; settings: HEK293 cells expressing human ERG
T1 sequence (Q12809 whole entry): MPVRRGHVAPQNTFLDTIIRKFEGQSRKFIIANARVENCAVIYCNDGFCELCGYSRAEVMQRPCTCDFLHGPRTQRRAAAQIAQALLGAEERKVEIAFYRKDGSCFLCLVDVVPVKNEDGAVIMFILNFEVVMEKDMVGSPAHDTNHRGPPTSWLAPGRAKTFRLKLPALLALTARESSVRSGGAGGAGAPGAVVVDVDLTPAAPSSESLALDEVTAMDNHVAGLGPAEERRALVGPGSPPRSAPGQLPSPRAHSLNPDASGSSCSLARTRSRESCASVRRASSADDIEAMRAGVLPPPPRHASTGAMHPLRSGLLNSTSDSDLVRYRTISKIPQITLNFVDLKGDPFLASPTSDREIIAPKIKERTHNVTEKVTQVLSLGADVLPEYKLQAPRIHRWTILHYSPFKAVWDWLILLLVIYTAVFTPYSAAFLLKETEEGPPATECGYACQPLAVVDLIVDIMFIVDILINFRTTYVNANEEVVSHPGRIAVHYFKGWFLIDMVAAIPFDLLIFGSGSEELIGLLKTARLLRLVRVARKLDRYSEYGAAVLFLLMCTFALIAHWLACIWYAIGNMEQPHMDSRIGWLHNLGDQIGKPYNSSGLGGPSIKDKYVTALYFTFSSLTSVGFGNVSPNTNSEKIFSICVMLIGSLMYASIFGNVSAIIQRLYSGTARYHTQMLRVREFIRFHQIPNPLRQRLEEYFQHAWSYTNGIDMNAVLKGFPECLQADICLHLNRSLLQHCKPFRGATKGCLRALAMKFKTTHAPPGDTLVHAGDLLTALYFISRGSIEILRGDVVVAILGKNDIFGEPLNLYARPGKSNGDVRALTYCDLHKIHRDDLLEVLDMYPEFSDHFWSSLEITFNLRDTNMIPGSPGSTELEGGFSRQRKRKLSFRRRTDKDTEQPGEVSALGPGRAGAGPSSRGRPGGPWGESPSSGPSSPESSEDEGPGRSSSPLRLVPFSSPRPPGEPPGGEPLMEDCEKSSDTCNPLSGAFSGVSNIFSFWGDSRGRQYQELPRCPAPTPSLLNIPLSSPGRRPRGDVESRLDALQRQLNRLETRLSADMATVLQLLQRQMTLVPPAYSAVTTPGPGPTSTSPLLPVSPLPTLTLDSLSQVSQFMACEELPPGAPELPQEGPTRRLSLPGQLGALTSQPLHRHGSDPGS

[5] = Metabolic stability in CD1 mouse liver microsomes assessed as compound remaining measured after 0.5 hrs by LC/MS-MS analysis; type: ADME, Microsome; settings: read-out: Stabilty
[6] = 1-Octanol-PBS buffer distribution coefficient, log D of compound at pH 7.4; type: physicochemical
[7] = system: Mus musculus; test: Antinociceptive activity in ddY mouse model assessed as inhibition of acetic acid-induced writhes at 30 mg/kg, po pretreated for 30 mins followed by acetic acid challenge and measured for 25 mins post acetic acid challenge; type: functional; settings: 55 min
[8] = biological target: T1, hERG (KCNH2); test: Inhibition of human ERG expressed in HEK293 cells at 10 uM at - 80 mV holding potential by whole cell patch clamp assay relative to control; type: cell-based; settings: HEK293 cells expressing human ERG
[9] = Cmax in ddY mouse at 10 mg/kg, po by LC-MS/MS method; type: ADME, organism-based; design: route oral, dose 10 mg/kg; settings: in vivo
[10] = AUC in ddY mouse at 10 mg/kg, po by LC-MS/MS method; type: ADME, organism-based; design: dose 10 mg/kg; settings: in vivo
[11] = biological target: T2, Mu-type opioid receptor (Homo sapiens, UniProt P35372); test: Agonist activity at human MOR expressed in CHOK1 cells assessed as inhibition of forskolin-stimulated cAMP accumulation by FRET assay relative to DAMGO; type: cell-based; settings: CHO-K1, human
T2 sequence (P35372 whole entry): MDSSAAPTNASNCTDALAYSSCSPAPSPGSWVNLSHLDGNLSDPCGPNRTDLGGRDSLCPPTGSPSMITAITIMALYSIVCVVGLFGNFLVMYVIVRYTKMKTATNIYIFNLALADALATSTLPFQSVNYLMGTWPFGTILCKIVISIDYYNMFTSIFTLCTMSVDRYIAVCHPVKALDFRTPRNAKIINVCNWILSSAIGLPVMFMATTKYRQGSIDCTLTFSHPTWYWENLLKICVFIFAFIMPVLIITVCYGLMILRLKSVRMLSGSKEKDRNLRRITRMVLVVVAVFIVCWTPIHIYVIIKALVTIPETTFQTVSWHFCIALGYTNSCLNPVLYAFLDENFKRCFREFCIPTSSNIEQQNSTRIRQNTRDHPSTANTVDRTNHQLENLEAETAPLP

[12] = biological target: T2, Mu-type opioid receptor; test: Displacement of [3H]diprenorphine from human MOR incubated for 1 hr
[13] = system: Mus musculus; test: Analgesic activity in formalin-induced orally dosed ddY mouse model of hyperalgesia assessed as time spent in paw licking during acute phase pretreated for 30 mins followed by formalin challenge and measured for 10 mins; type: functional; settings: po, 0.5 h
[14] = Half life in ddY mouse at 10 mg/kg, po by LC-MS/MS method; type: ADME, organism-based; settings: in vivo

For `CN1C(=O)c2[nH]c3ccccc3c2CN2CC[C@H]1C2`, the selectivity ratio [1] was 2.1, the ID50 [2] was 19 mg/kg and the ED50 [3] was 8.7 mg/kg.
With `CN1C(=O)c2cccc(F)c2CN2C[C@@H]1C1(CC1)C2` the inhibition at 30 µM [4] was 0%, the remaining at 0.5 h [5] was 79% and the logD [6] was 0.9. The ED50 [3] was 14 mg/kg.
`CC1c2ccccc2C(=O)N(C)[C@H]2CCN1C2` (some centres undefined) gave an inhibition in vivo at 30 mg/kg [7] of 31%, an inhibition at 10 µM [8] of 6% and a remaining at 0.5 h [5] of 81%. It also gave a logD [6] of 0.3.
With `CN1C(=O)c2cc(F)ccc2CN2C[C@@H]1C1(CC1)C2` the inhibition at 30 µM [4] was 14%, the remaining at 0.5 h [5] was 81% and the logD [6] was 0.9. It also gave an ED50 [3] of 36 mg/kg.
For `CCN1C(=O)c2ccccc2CN2CC[C@H]1C2`, the inhibition in vivo at 30 mg/kg [7] was 45%, the inhibition at 10 µM [8] was 6% and the remaining at 0.5 h [5] was 80%. The logD [6] was 0.4.
Compound `CN1C(=O)c2ccccc2CN2CC[C@H]1C2` has an inhibition in vivo at 30 mg/kg [7] of 97%, an inhibition at 10 µM [8] of 5% and a remaining at 0.5 h [5] of 82%. It also gave a Cmax [9] of 3.74 µM, a logD [6] of 0.3 and an AUC [10] of 7.79 µM·h. The selectivity ratio [1] was over 3.4, the ID50 [2] was over 85 mg/kg and the ED50 [3] was 25 mg/kg.
`CN1C(=O)c2c(F)cccc2CN2C[C@@H]1C1(CC1)C2` showed an inhibition at 30 µM [4] of 0%, a remaining at 0.5 h [5] of 79% and a logD [6] of 1. The ED50 [3] was 35 mg/kg.
`O=C1c2ccccc2CN2CCCN1CC2` showed an inhibition in vivo at 30 mg/kg [7] of 24%, an inhibition at 10 µM [8] of -1% and a remaining at 0.5 h [5] of 78%. The logD [6] was 0.6.
`CC12CCN(CC1)Cc1c([nH]c3ccccc13)C2=O` showed a selectivity ratio [1] of 2.1, an ID50 [2] of 16 mg/kg and an ED50 [3] of 7.8 mg/kg.
`CN1C(=O)c2ccccc2CN2CCC[C@H]1C2` gave an inhibition in vivo at 30 mg/kg [7] of 77%, an inhibition at 10 µM [8] of 5% and a remaining at 0.5 h [5] of 62%. It also gave a Cmax [9] of 1.97 µM, a logD [6] of 0.3 and an AUC [10] of 1.97 µM·h. It also gave an ED50 [3] of 23 mg/kg.
`C/C=C1/CN2CC[C@H]1C(=O)c1[nH]c3ccccc3c1C2` showed a selectivity ratio [1] of 2.2, an ID50 [2] of 69 mg/kg and an ED50 [3] of 32 mg/kg.
Work on `CN1C(=O)c2ccccc2CN2C[C@@H]1C1(CC1)C2` yielded an inhibition at 30 µM [4] of 15%, an inhibition in vivo at 30 mg/kg [7] of 84% and an inhibition at 10 µM [8] of 14%. The remaining at 0.5 h [5] was 81%, the Cmax [9] was 5.24 µM and the logD [6] was 0.5. For the same compound, the AUC [10] was 5.24 µM·h and the ED50 [3] was 15 mg/kg.
In the case of `CN1C(=O)c2ccc(F)cc2CN2C[C@@H]1C1(CC1)C2`, the Emax [11] is reported as 18%, the EC50 [12] is reported as over 100 µM and the ED50 [13] is reported as 16 mg/kg. For the same compound, the half-life [14] was 1.9 h, the inhibition at 30 µM [4] was 2% and the remaining at 0.5 h [5] was 83%. The Cmax [9] was 1.47 µM, the logD [6] was 0.9 and the AUC [10] was 1.74 µM·h. It also gave a selectivity ratio [1] of 10.3, an ID50 [2] of 66 mg/kg and an ED50 [3] of 6.4 mg/kg.
